Measured values reported in patent publication US20250332181A1, “ANTIBIOTIC METHODS AND COMPOSITIONS” (AI BIO DISCOVERY LLC, priority 2024, published 2025).
“Also recorded” adds a separate entry of the source.

Columns and labels:
Assay type in all cases: cell-based
Acinetobacter baumannii = assay: Disk diffusion test on Acinetobacter baumannii
From the text: (§1) Applicants undertook two rounds of studies. […] When agar plating was required, both rounds of Applicants' studies were undertaken using similar disk diffusion methods on bacteria grown on agar substrates in Petri dishes. These methods conform to those prescribed by the Clinical & Laboratory Standards Institute (https://clsi.org). […]

Pseudomonas aeruginosa = assay: Disk diffusion test on Pseudomonas aeruginosa
From the text: as §1

Citrobacter freundii = assay: Disk diffusion test on Citrobacter freundii
From the text: as §1

Klebsiella pneumoniae = assay: Disk diffusion test on Klebsiella pneumoniae; details: for antibacterial activity of the agent by itself: single agent disk, ceftazidime 30 μg, meropenem 10 μg, Compound C 15 μg
From the text: (§2) Applicants undertook two rounds of studies. The results of the first round are illustrated in FIGS. 1A-9B and discussed in the related text. The results of the second round of studies are illustrated in FIGS. 10-23 and discussed in the related text. When agar plating was required, both rounds of Applicants' studies were undertaken using similar disk diffusion methods on bacteria grown on agar substrates in Petri dishes. These methods conform to those prescribed by the Clinical & Laboratory Standards Institute (https://clsi.org).
(§3) Disk Diffusion tests with beta-lactam antibiotics with and without the beta-lactamase inhibitor of FIG. 1A. Closely spaced disks disclose possible synergistic or inhibitory effects between the antibiotics and the compound of FIG. 1A (labeled in FIGS. 4A-9B as Compound C). The distances between disks show the effectiveness of the possible synergy. […] Each disk contains either the compound of FIG. 1A or an antibiotic (one of FIGS. 3A-3D), or the compound of […] and an antibiotic (one of FIGS. 3A-3D). When a disk with the compound of FIG. 1A is in proximity to a disk with an antibiotic both agents diffuse into the bacterial growth medium, allowing us to observe the area where both agents are present at the same time. These disk diffusion tests were evaluated with the following:
(§4) As noted above, Applicants' studies were undertaken using similar disk diffusion methods on bacteria grown on agar substrates in Petri dishes. These methods conform to those prescribed by the Clinical & Laboratory Standards Institute (https://clsi.org).

Escherichia coli = assay: Disk diffusion test on Escherichia coli
From the text: as §1

[1] = system: methicillin-resistant coagulase-negative Staphylococcus sps. (MRCoNS); assay: Disk diffusion test on MRCoNS; details: for antibacterial activity of the agent by itself: single agent disk, penicillin G 10 μg, cefoxitin 30 μg, Compound C 15 μg
From the text: as §2, §3, §4

[2] = system: MSSA (methicillin-sensitive Staphylococcus aureus); assay: Disk diffusion test on Staphylococcus aureus (MSSA); details: for action of the antibiotic by itself on the Staphylococcus aureus strain: used either separately or in combination
From the text: as §1

[3] = in combination with ceftazidime
[4] = in combination with piperacillin
[5] = in combination with ceftazidime (second round)
[6] = in combination with meropenem (second round)
[7] = in combination with ceftriaxone

Row | SMILES | effectiveness of the combination with antibiotic (Acinetobacter baumannii; in combination with cefepime) | effectiveness of the combination with antibiotic (Acinetobacter baumannii; [3]) | effectiveness of the combination with antibiotic (Acinetobacter baumannii; in combination with meropenem) | effectiveness of the combination with antibiotic (Pseudomonas aeruginosa; in combination with aztreonam) | effectiveness of the combination with antibiotic (Pseudomonas aeruginosa; in combination with cefepime) | effectiveness of the combination with antibiotic (Pseudomonas aeruginosa; in combination with meropenem) | effectiveness of the combination with antibiotic (Pseudomonas aeruginosa; [4]) | effectiveness of the combination with antibiotic (Klebsiella pneumoniae; [5]) | further results
1 | OB(O)c1cc(F)cc(F)c1F [2,3,5-Trifluorophenylboronic acid] | enhanced effectiveness | enhanced effectiveness | enhanced effectiveness | enhanced effectiveness | enhanced effectiveness | enhanced effectiveness | enhanced effectiveness |  | effectiveness of the combination with antibiotic (Pseudomonas aeruginosa; [3]): enhanced effectiveness
2 | Nc1cc(B(O)O)cc(C(=O)O)c1 [3-Amino-5-carboxylphenylboronic acid] | enhanced effectiveness |  |  |  |  |  |  |  | 
3 | O=C(O)c1cccc(B(O)O)c1F [3-Carboxy-2-fluorophenylboronic acid] | enhanced effectiveness | enhanced effectiveness | enhanced effectiveness |  | partial effectiveness | partial effectiveness | partial effectiveness | enhanced effectiveness | effectiveness of the combination with antibiotic (Citrobacter freundii; in combination with meropenem): partial effectiveness; effectiveness of the combination with antibiotic (Klebsiella pneumoniae; in combination with cefepime): enhanced effectiveness; effectiveness of the combination with antibiotic (Klebsiella pneumoniae; [6]): enhanced effectiveness
4 | O=C(O)c1cc(B(O)O)ccc1Cl [5-Borono-2-chlorobenzoic acid] | enhanced effectiveness | enhanced effectiveness | enhanced effectiveness |  |  |  |  | enhanced effectiveness | effectiveness of the combination with antibiotic (Klebsiella pneumoniae; in combination with cefepime): enhanced effectiveness
5 | O=C(O)c1cc(B(O)O)ccc1F [5-Borono-2-fluorobenzoic acid] | enhanced effectiveness |  | enhanced effectiveness | enhanced effectiveness | enhanced effectiveness |  | enhanced effectiveness |  | 
6 | O=C(O)c1ccc(Cl)c(B(O)O)c1 [5-Carboxy-2-chlorophenylboronic acid] | enhanced effectiveness | enhanced effectiveness |  |  |  | enhanced effectiveness | enhanced effectiveness | enhanced effectiveness | effectiveness of the combination with antibiotic (Citrobacter freundii; in combination with meropenem): partial enhanced effectiveness; effectiveness of the combination with antibiotic (Klebsiella pneumoniae; in combination with cefepime): enhanced effectiveness
7 | O=C(O)c1ccc(F)c(B(O)O)c1 [5-Carboxy-2-fluorophenylboronic Acid] | enhanced effectiveness | enhanced effectiveness | enhanced effectiveness |  |  | enhanced effectiveness | proved effective | enhanced effectiveness | effectiveness of the combination with antibiotic (Klebsiella pneumoniae; in combination with cefepime): enhanced effectiveness; effectiveness of the combination with antibiotic (Klebsiella pneumoniae; [6]): enhanced effectiveness
8 | CC1(C)OB(c2ccc(C(=O)O)s2)OC1(C)C [5-Carboxythiophene-2-boronic acid pinacol ester] | enhanced effectiveness | enhanced effectiveness | enhanced effectiveness | enhanced effectiveness | partial effectiveness |  |  | enhanced effectiveness | effectiveness of the combination with antibiotic (Escherichia coli; in combination with amoxycillin): enhanced effectiveness; effectiveness of the combination with antibiotic (Escherichia coli; [3]): enhanced effectiveness; effectiveness of the combination with antibiotic (Escherichia coli; [7]): enhanced effectiveness; effectiveness of the combination with antibiotic (Escherichia coli; in combination with meropenem): enhanced effectiveness; effectiveness of the combination with antibiotic ([1]; in combination with ampicillin): enhanced effectiveness; effectiveness of the combination with antibiotic ([1]; in combination with penicillin G (second round)): enhanced effectiveness; effectiveness of the combination with antibiotic (Citrobacter freundii; [3]): enhanced effectiveness; effectiveness of the combination with antibiotic (Citrobacter freundii; [7]): enhanced effectiveness; effectiveness of the combination with antibiotic (Citrobacter freundii; in combination with meropenem): enhanced effectiveness; effectiveness of the combination with antibiotic (Klebsiella pneumoniae; [7]): enhanced effectiveness; effectiveness of the combination with antibiotic (Klebsiella pneumoniae; [6]): enhanced effectiveness; effectiveness of the combination with antibiotic (Pseudomonas aeruginosa; in combination with cefoperazone): enhanced effectiveness; effectiveness of the combination with antibiotic ([2]; in combination with ampicillin): enhanced effectiveness; effectiveness of the combination with antibiotic ([2]; in combination with penicillin G): enhanced effectiveness
9 | O=C(O)c1cc(B(O)O)cc([N+](=O)[O-])c1 [Benzoic acid, 3-borono-5-nitro] | enhanced effectiveness |  |  | enhanced effectiveness | enhanced effectiveness |  |  |  | 
10 | CO[C@@]1(NC(=O)Cc2cccs2)C(=O)N2C(C(=O)O)=C(COC(N)=O)CS[C@@H]21 [Cefoxitin, cefoxitin, reference compound] |  |  |  |  |  |  |  |  | antibacterial activity of the agent by itself [1]: active on its own
11 | CC(C)(O/N=C(\C(=O)N[C@@H]1C(=O)N2C(C(=O)[O-])=C(C[n+]3ccccc3)CS[C@H]12)c1csc(N)n1)C(=O)O [Ceftazidime, ceftazidime, reference compound] |  |  |  |  |  |  |  |  | antibacterial activity of the agent by itself (Klebsiella pneumoniae): very little antibacterial activity; also recorded: by itself is inactive
12 | C[C@@H](O)[C@H]1C(=O)N2C(C(=O)O)=C(S[C@@H]3CN[C@H](C(=O)N(C)C)C3)[C@H](C)[C@H]12 [Meropenem, meropenem, reference compound] |  |  |  |  |  |  |  |  | antibacterial activity of the agent by itself (Klebsiella pneumoniae): by itself IS active
13 | CC1(C)S[C@@H]2[C@H](NC(=O)Cc3ccccc3)C(=O)N2[C@H]1C(=O)O [Penicillin G, penicillin G, reference compound] |  |  |  |  |  |  |  |  | antibacterial activity of the agent by itself [1]: no activity by itself; antibacterial activity of the agent by itself ([1]; listed as penicillin G): no antibacterial activity; action of the antibiotic by itself on the Staphylococcus aureus strain [2]: completely resistant
14 | CC1(C)OB(c2cccc(CC(=O)O)c2)OC1(C)C [Phenylacetic acid-3-boronic acid pinacol ester] | enhanced effectiveness |  |  | enhanced effectiveness | enhanced effectiveness | enhanced effectiveness | enhanced effectiveness |  | 
15 | CC1(C)S[C@@H]2[C@H](NC(=O)[C@H](N)c3ccc(O)cc3)C(=O)N2[C@H]1C(=O)O [amoxicillin, reference compound] |  |  |  |  |  |  |  |  | action of the antibiotic by itself on the Staphylococcus aureus strain [2]: completely resistant
